According to PMC7933434, “Entropy-driven binding of gut bacterial β-glucuronidase inhibitors ameliorates irinotecan-induced toxicity” (Communications Biology, 2021):
“And” between values parts separate entries of the source, which are not always exact repeats. Identical values can stand only once.

How the values were obtained:
HsGUS (human GUS) = biological target: T1, HsGUS (human GUS) (Homo sapiens, UniProt P08236); assay: GUS inhibition assay, hydrolysis of 4-methylumbelliferyl-β-glucuronide, HsGUS; type: biochemical; design: GUS activity (hydrolysis rate of MUG): unit not given here
T1 construct: HsGUS was prepared as described[37]; made in house
T1 sequence (P08236 23-651): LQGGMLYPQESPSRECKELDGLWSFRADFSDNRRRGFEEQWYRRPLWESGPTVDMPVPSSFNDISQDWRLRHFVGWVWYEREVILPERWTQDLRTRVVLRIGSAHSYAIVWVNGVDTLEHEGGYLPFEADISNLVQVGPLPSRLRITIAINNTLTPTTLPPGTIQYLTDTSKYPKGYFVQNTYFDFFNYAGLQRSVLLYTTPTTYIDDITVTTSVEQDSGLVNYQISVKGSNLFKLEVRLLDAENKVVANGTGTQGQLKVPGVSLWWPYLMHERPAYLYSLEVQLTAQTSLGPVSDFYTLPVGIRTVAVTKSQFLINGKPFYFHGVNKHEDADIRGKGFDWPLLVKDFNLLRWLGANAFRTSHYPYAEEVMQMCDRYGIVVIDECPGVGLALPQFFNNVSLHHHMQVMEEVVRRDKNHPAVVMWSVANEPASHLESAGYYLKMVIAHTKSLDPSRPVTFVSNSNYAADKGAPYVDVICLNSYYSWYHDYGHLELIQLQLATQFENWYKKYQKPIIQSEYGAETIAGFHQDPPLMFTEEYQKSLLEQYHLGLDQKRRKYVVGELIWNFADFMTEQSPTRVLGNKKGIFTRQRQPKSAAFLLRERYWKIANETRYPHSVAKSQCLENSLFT

[1] = biological target: EcGUS (Escherichia coli GUS) (Escherichia coli, UniProt P05804); assay: biochemical
EcGUS (Escherichia coli GUS), sequence (P05804 whole entry): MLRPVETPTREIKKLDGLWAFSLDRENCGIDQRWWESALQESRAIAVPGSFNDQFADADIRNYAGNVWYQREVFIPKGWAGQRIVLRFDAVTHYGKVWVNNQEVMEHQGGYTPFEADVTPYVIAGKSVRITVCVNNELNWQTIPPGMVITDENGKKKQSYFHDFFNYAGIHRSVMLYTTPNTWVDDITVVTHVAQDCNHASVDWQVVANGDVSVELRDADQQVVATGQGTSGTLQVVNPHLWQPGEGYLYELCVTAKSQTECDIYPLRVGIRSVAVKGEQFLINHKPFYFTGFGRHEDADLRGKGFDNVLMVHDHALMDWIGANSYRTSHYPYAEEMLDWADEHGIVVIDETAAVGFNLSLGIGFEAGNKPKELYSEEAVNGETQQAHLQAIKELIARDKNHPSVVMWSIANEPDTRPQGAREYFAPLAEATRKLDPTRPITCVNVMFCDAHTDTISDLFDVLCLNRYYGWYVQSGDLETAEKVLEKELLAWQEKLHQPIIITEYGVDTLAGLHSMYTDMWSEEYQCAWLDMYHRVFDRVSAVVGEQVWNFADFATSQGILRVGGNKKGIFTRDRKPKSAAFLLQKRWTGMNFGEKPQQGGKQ

CCC[C@@H]1NC[C@@H](O)[C@H](O)[C@H]1C(=O)O [Inhibitor 2, C6-propyl UIFG]
GUS activity (hydrolysis rate of MUG) (HsGUS (human GUS); [Inhibitor 2] =2 μM, [MUG] 0.8 mM): 3926.69 and 3841.33 | GUS activity (hydrolysis rate of MUG) (HsGUS (human GUS); [Inhibitor 2] =2 μM, [MUG] 1.2 mM): 4682.68 and 4814.95 | GUS activity (hydrolysis rate of MUG) (HsGUS (human GUS); [Inhibitor 2] =2 μM, [MUG] 1.6 mM): 5075.17 and 5261.75 | GUS activity (hydrolysis rate of MUG) (HsGUS (human GUS); [Inhibitor 2] =2 μM, [MUG] 2 mM): 5616.94 and 5799.63 | GUS activity (hydrolysis rate of MUG) (HsGUS (human GUS); [Inhibitor 2] =5 μM, [MUG] 0.1 mM): 870.401 and 901.046 | GUS activity (hydrolysis rate of MUG) (HsGUS (human GUS); [Inhibitor 2] =5 μM, [MUG] 0.2 mM): 1774.12 and 1609.49 | GUS activity (hydrolysis rate of MUG) (HsGUS (human GUS); [Inhibitor 2] =5 μM, [MUG] 0.4 mM): 2566.62 and 2497.87 | GUS activity (hydrolysis rate of MUG) (HsGUS (human GUS); [Inhibitor 2] =5 μM, [MUG] 0.6 mM): 3244.91 and 3390.27 | GUS activity (hydrolysis rate of MUG) (HsGUS (human GUS); [Inhibitor 2] =5 μM, [MUG] 0.8 mM): 3688.45 and 3865.44 | GUS activity (hydrolysis rate of MUG) (HsGUS (human GUS); [Inhibitor 2] =5 μM, [MUG] 1.2 mM): 4481.74 and 4357.11 | GUS activity (hydrolysis rate of MUG) (HsGUS (human GUS); [Inhibitor 2] =5 μM, [MUG] 1.6 mM): 5234.04 and 5031.9 | GUS activity (hydrolysis rate of MUG) (HsGUS (human GUS); [Inhibitor 2] =5 μM, [MUG] 2 mM): 5683.23 and 5771.06 | GUS activity (hydrolysis rate of MUG) (HsGUS (human GUS); [Inhibitor 2] =10 μM, [MUG] 0.1 mM): 788.919 and 835.551 | GUS activity (hydrolysis rate of MUG) (HsGUS (human GUS); [Inhibitor 2] =10 μM, [MUG] 0.2 mM): 1388.11 and 1357.62 | GUS activity (hydrolysis rate of MUG) (HsGUS (human GUS); [Inhibitor 2] =10 μM, [MUG] 0.4 mM): 2139.7 and 2292.26 | GUS activity (hydrolysis rate of MUG) (HsGUS (human GUS); [Inhibitor 2] =10 μM, [MUG] 0.6 mM): 2815.06 and 3009.55 | GUS activity (hydrolysis rate of MUG) (HsGUS (human GUS); [Inhibitor 2] =10 μM, [MUG] 0.8 mM): 3419.24 and 3416.94 | GUS activity (hydrolysis rate of MUG) (HsGUS (human GUS); [Inhibitor 2] =10 μM, [MUG] 1.2 mM): 4195.01 and 4091.63 | GUS activity (hydrolysis rate of MUG) (HsGUS (human GUS); [Inhibitor 2] =10 μM, [MUG] 1.6 mM): 5141.39 and 4873.96 | GUS activity (hydrolysis rate of MUG) (HsGUS (human GUS); [Inhibitor 2] =10 μM, [MUG] 2 mM): 5569.48 and 4956.18 | GUS activity (hydrolysis rate of MUG) (HsGUS (human GUS); [Inhibitor 2] =20 μM, [MUG] 0.1 mM): 633.046 and 650.421 | GUS activity (hydrolysis rate of MUG) (HsGUS (human GUS); [Inhibitor 2] =20 μM, [MUG] 0.2 mM): 1058.97 and 1051.89 | GUS activity (hydrolysis rate of MUG) (HsGUS (human GUS); [Inhibitor 2] =20 μM, [MUG] 0.4 mM): 1746.1 and 1806.97 | GUS activity (hydrolysis rate of MUG) (HsGUS (human GUS); [Inhibitor 2] =20 μM, [MUG] 0.6 mM): 2323.32 and 2357.04 | GUS activity (hydrolysis rate of MUG) (HsGUS (human GUS); [Inhibitor 2] =20 μM, [MUG] 0.8 mM): 2744.58 and 2819.54 | GUS activity (hydrolysis rate of MUG) (HsGUS (human GUS); [Inhibitor 2] =20 μM, [MUG] 1.2 mM): 3443.09 and 3077.07 | GUS activity (hydrolysis rate of MUG) (HsGUS (human GUS); [Inhibitor 2] =20 μM, [MUG] 1.6 mM): 3957.48 and 3836.46 | GUS activity (hydrolysis rate of MUG) (HsGUS (human GUS); [Inhibitor 2] =20 μM, [MUG] 2 mM): 4613.38 and 4482.85 | GUS activity (hydrolysis rate of MUG) (HsGUS (human GUS); [Inhibitor 2] =40 μM, [MUG] 0.1 mM): 425.121 and 430.469 | GUS activity (hydrolysis rate of MUG) (HsGUS (human GUS); [Inhibitor 2] =40 μM, [MUG] 0.2 mM): 709.381 and 742.235 | GUS activity (hydrolysis rate of MUG) (HsGUS (human GUS); [Inhibitor 2] =40 μM, [MUG] 0.4 mM): 1260.88 and 1281.33 | GUS activity (hydrolysis rate of MUG) (HsGUS (human GUS); [Inhibitor 2] =40 μM, [MUG] 0.6 mM): 1728.03 and 1805.44 | GUS activity (hydrolysis rate of MUG) (HsGUS (human GUS); [Inhibitor 2] =40 μM, [MUG] 0.8 mM): 2092.2 and 2090.09 | GUS activity (hydrolysis rate of MUG) (HsGUS (human GUS); [Inhibitor 2] =40 μM, [MUG] 1.2 mM): 2609.86 and 2615.59 | GUS activity (hydrolysis rate of MUG) (HsGUS (human GUS); [Inhibitor 2] =40 μM, [MUG] 1.6 mM): 3152.02 and 3056.96 | GUS activity (hydrolysis rate of MUG) (HsGUS (human GUS); [Inhibitor 2] =40 μM, [MUG] 2 mM): 3549.78 and 3510.91 | GUS activity (hydrolysis rate of MUG) (HsGUS (human GUS); [Inhibitor 2] =75 μM, [MUG] 0.1 mM): 269.697 and 248.688 | GUS activity (hydrolysis rate of MUG) (HsGUS (human GUS); [Inhibitor 2] =75 μM, [MUG] 0.2 mM): 469.532 and 449.551 | GUS activity (hydrolysis rate of MUG) (HsGUS (human GUS); [Inhibitor 2] =75 μM, [MUG] 0.4 mM): 868.241 and 807.629 | GUS activity (hydrolysis rate of MUG) (HsGUS (human GUS); [Inhibitor 2] =75 μM, [MUG] 0.6 mM): 1207.03 and 1153.12 | GUS activity (hydrolysis rate of MUG) (HsGUS (human GUS); [Inhibitor 2] =75 μM, [MUG] 0.8 mM): 1515.37 and 1395.3 | GUS activity (hydrolysis rate of MUG) (HsGUS (human GUS); [Inhibitor 2] =75 μM, [MUG] 1.2 mM): 1853.64 and 1948.04 | GUS activity (hydrolysis rate of MUG) (HsGUS (human GUS); [Inhibitor 2] =75 μM, [MUG] 1.6 mM): 2229.7 and 2415.81 | GUS activity (hydrolysis rate of MUG) (HsGUS (human GUS); [Inhibitor 2] =75 μM, [MUG] 2 mM): 2629.91 and 2703.96 | Ki ([1]; 50 mM HEPES pH 7.5, 37 °C): 0.035 ± 0.009 µM | Ki ([1]; source data of Table 1, from plot of apparent Km against [inhibitor] (μM)): 0.0352 µM
